Results published in ChEMBL document CHEMBL4265948, “A cardiac glycoside HTF-1 isolated from Helleborus thibetanus Franch displays potent in vitro anti-cancer activity via caspase-9, MAPK and PI3K-Akt-mTOR pathways” (Eur J Med Chem, 2018).
Activity calls are given as the source filed them. No cut-off for these calls is given here.

What was measured:
[1] = test system: HeLa; experiment: Induction of morphological changes in human HeLa cells assessed as impaired cell adhesion at 200 to 500 nM after 24 hrs by bright field microscopic analysis; format: functional, cell-based
[2] = test system: HeLa; experiment: Induction of apoptosis in human HeLa cells assessed as cleaved caspase-7 expression at 50 to 200 nM after 24 hrs by Western blot analysis; format: functional, cell-based
[3] = test system: HeLa; experiment: Induction of apoptosis in human HeLa cells assessed as early apoptotic cells at 500 nM after 24 hrs by Annexin-V-FITC/propidium iodide staining based flow cytometry (reference value: 3.08%); format: functional
[4] = test system: HeLa; experiment: Antiproliferative activity against human HeLa cells assessed as inhibition of cell proliferation at 100 to 200 nM after 24 hrs by Ki-67/Hoechst 33342 staining based fluorescence microscopic analysis; format: functional
[5] = test system: L02; experiment: Cytotoxicity activity against human LO2 cells after 24 to 48 hrs by MTT assay; format: cell-based
[6] = test system: HeLa; experiment: Down regulation of Bcl2 expression in human HeLa cells at 50 to 200 nM after 24 hrs by Western blot analysis; format: functional, cell-based
[7] = test system: HeLa; experiment: Induction of double strand breaks in human HeLa cells assessed as increase in phospho-gammaH2AX expression at 50 to 200 nM after 24 hrs by Western blot analysis; format: functional, cell-based
[8] = biological target: MAP kinase p38 (Homo sapiens) (UniProt O15264+Q15759+Q16539+P53778); experiment: Effect on p38 phosphorylation in human HeLa cells at 50 to 200 nM after 24 hrs by Western blot analysis; format: cell-based
[9] = test system: HepG2; experiment: Cytotoxicity activity against human HepG2 cells after 24 hrs by MTT assay; format: functional, cell-based; conditions: HepG2, 24 h
[10] = test system: HeLa; experiment: Induction of apoptosis in human HeLa cells assessed as late apoptotic cells at 200 nM after 24 hrs by Annexin-V-FITC/propidium iodide staining based flow cytometry (reference value: 11.1%); format: functional
[11] = test system: HeLa; experiment: Down regulation of FEN1 expression in human HeLa cells at 50 to 200 nM after 24 hrs by Western blot analysis; format: functional, cell-based
[12] = test system: HeLa; experiment: Induction of morphological changes in human HeLa cells assessed as formation of apoptotic bodies at 200 to 500 nM after 24 hrs by scanning electron microscopic analysis; format: functional, cell-based
[13] = test system: HeLa; experiment: Induction of morphological changes in human HeLa cells assessed as thinner microvilli at 200 to 500 nM after 24 hrs by scanning electron microscopic analysis; format: functional, cell-based
[14] = test system: HeLa; experiment: Induction of morphological changes in human HeLa cells assessed as DNA fragmentation at 200 to 500 nM after 24 hrs by Hoechst 33342 staining based fluorescence microscopic analysis; format: functional, cell-based
[15] = test system: HeLa; experiment: Induction of morphological changes in human HeLa cells assessed as cell membrane blebbing at 200 to 500 nM after 24 hrs by scanning electron microscopic analysis; format: functional, cell-based
[16] = test system: HeLa; experiment: Antiinvasive activity in human HeLa cells at 50 nM after 48 hrs by crystal violet staining based microscopic analysis; format: functional, cell-based
[17] = test system: HeLa; experiment: Induction of apoptosis in human HeLa cells assessed as late apoptotic cells at 500 nM after 24 hrs by Annexin-V-FITC/propidium iodide staining based flow cytometry (reference value: 11.1%); format: functional
[18] = test system: HeLa; experiment: Antimigratory activity in human HeLa cells at 25 to 50 nM after 24 to 48 hrs by wound healing assay; format: functional, cell-based
[19] = test system: HeLa; experiment: Inhibition of PI3K phosphorylation in human HeLa cells after 24 hrs by Western blot analysis; format: cell-based
[20] = test system: HeLa; experiment: Induction of morphological changes in human HeLa cells assessed as protrusions in cell membrane at 200 to 500 nM after 24 hrs by scanning electron microscopic analysis; format: functional, cell-based
[21] = test system: HeLa; experiment: Induction of apoptosis in human HeLa cells assessed as viable cells at 100 nM after 24 hrs by Annexin-V-FITC/propidium iodide staining based flow cytometry (reference value: 85.8%); format: functional; conditions: read-out: Activity
[22] = test system: HepG2; experiment: Cytotoxicity activity against human HepG2 cells after 48 hrs by MTT assay; format: functional, cell-based; conditions: HepG2, 48 h
[23] = test system: HeLa; experiment: Induction of morphological changes in human HeLa cells assessed as cell shrinkage at 200 to 500 nM after 24 hrs by bright field microscopic analysis; format: functional, cell-based
[24] = test system: HeLa; experiment: Inhibition of colony formation in human HeLa cells at 50 nM after 24 hrs by crystal violet staining based microscopic analysis; format: functional, cell-based
[25] = biological target: Mitogen-activated protein kinase; ERK1/ERK2 (Homo sapiens) (UniProt P27361+P28482); experiment: Inhibition of ERK1/2 phosphorylation in human HeLa cells at 50 to 200 nM after 24 hrs by Western blot analysis; format: cell-based
[26] = test system: HeLa; experiment: Induction of apoptosis in human HeLa cells assessed as cleaved caspase-9 expression at 50 to 200 nM after 24 hrs by Western blot analysis; format: functional, cell-based
[27] = test system: HeLa; experiment: Cytotoxicity activity against human HeLa cells after 24 hrs by MTT assay; format: functional, cell-based
[28] = biological target: c-Jun N-terminal kinase, JNK (Homo sapiens) (UniProt P45983+P53779+P45984); experiment: Activation of JNK phosphorylation in human HeLa cells after 24 hrs by Western blot analysis; format: cell-based
[29] = test system: MCF7; experiment: Cytotoxicity activity against human MCF7 cells after 48 hrs by MTT assay; format: functional, cell-based; conditions: MCF7, 48 h
[30] = test system: HeLa; experiment: Induction of apoptosis in human HeLa cells assessed as necrotic cells at 200 nM after 24 hrs by Annexin-V-FITC/propidium iodide staining based flow cytometry (reference value: 0.031%); format: functional
[31] = biological target: RAC-alpha serine/threonine-protein kinase (Homo sapiens) (UniProt P31749); experiment: Inhibition of AKT phosphorylation in human HeLa cells after 24 hrs by Western blot analysis; format: cell-based
[32] = test system: HeLa; experiment: Induction of apoptosis in human HeLa cells assessed as necrotic cells at 500 nM after 24 hrs by Annexin-V-FITC/propidium iodide staining based flow cytometry (reference value: 0.031%); format: functional
[33] = biological target: Serine/threonine-protein kinase mTOR (Homo sapiens) (UniProt P42345); experiment: Inhibition of mTOR phosphorylation in human HeLa cells after 24 hrs by Western blot analysis; format: cell-based
[34] = test system: HeLa; experiment: Induction of morphological changes in human HeLa cells assessed as cell shrinkage at 200 to 500 nM after 24 hrs by scanning electron microscopic analysis; format: functional, cell-based
[35] = test system: HeLa; experiment: Induction of apoptosis in human HeLa cells assessed as early apoptotic cells at 200 nM after 24 hrs by Annexin-V-FITC/propidium iodide staining based flow cytometry (reference value: 3.08%); format: functional
[36] = biological target: Ribosomal protein S6 kinase (Homo sapiens) (UniProt P51812+Q9UBS0+O75676+Q15349+O75582+P23443+Q9UK32+Q15418); experiment: Inhibition of p70S6K phosphorylation in human HeLa cells after 24 hrs by Western blot analysis; format: cell-based
[37] = test system: HeLa; experiment: Induction of morphological changes in human HeLa cells assessed as wizened nucleus at 200 to 500 nM after 24 hrs by Hoechst 33342 staining based fluorescence microscopic analysis; format: functional, cell-based
[38] = test system: HeLa; experiment: Induction of apoptosis in human HeLa cells assessed as viable cells at 200 nM after 24 hrs by Annexin-V-FITC/propidium iodide staining based flow cytometry (reference value: 85.8%); format: functional; conditions: read-out: Activity
[39] = test system: MCF7; experiment: Cytotoxicity activity against human MCF7 cells after 24 hrs by MTT assay; format: functional, cell-based; conditions: MCF7, 24 h
[40] = test system: HeLa; experiment: Induction of apoptosis in human HeLa cells assessed as viable cells at 500 nM after 24 hrs by Annexin-V-FITC/propidium iodide staining based flow cytometry (reference value: 85.8%); format: functional; conditions: read-out: Activity
[41] = test system: HeLa; experiment: Induction of apoptosis in human HeLa cells assessed as late apoptotic cells at 100 nM after 24 hrs by Annexin-V-FITC/propidium iodide staining based flow cytometry (reference value: 11.1%); format: functional
[42] = test system: HeLa; experiment: Antiproliferative activity against human HeLa cells assessed as inhibition of cell proliferation at 100 to 200 nM after 24 hrs by Edu/Hoechst 33342 staining based fluorescence microscopic analysis; format: functional
[43] = test system: HeLa; experiment: Induction of apoptosis in human HeLa cells assessed as necrotic cells at 100 nM after 24 hrs by Annexin-V-FITC/propidium iodide staining based flow cytometry (reference value: 0.031%); format: functional
[44] = test system: HeLa; experiment: Cell cycle arrest in human HeLa cells assessed as accumulation at S phase at 200 nM after 24 hrs by propidium iodide staining based flow cytometry relative to control; format: functional
[45] = test system: HeLa; experiment: Down regulation of survivin expression in human HeLa cells at 50 to 200 nM after 24 hrs by Western blot analysis; format: functional, cell-based
[46] = test system: HeLa; experiment: Induction of morphological changes in human HeLa cells assessed as chromatin condensation at 200 to 500 nM after 24 hrs by Hoechst 33342 staining based fluorescence microscopic analysis; format: functional, cell-based
[47] = test system: HeLa; experiment: Induction of apoptosis in human HeLa cells assessed as early apoptotic cells at 100 nM after 24 hrs by Annexin-V-FITC/propidium iodide staining based flow cytometry (reference value: 3.08%); format: functional
[48] = test system: HeLa; experiment: Induction of apoptosis in human HeLa cells assessed as […] in cleaved PARP expression at 50 to 200 nM after 24 hrs by Western blot analysis; format: functional, cell-based
[49] = test system: HeLa; experiment: Induction of morphological changes in human HeLa cells assessed as increase in floating round cells at 200 to 500 nM after 24 hrs by bright field microscopic analysis; format: functional, cell-based
[50] = test system: HeLa; experiment: Cell cycle arrest in human HeLa cells assessed as accumulation at S phase at 100 nM after 24 hrs by propidium iodide staining based flow cytometry; format: functional
[51] = test system: HeLa; experiment: Cell cycle arrest in human HeLa cells assessed as accumulation at sub-G1 phase at 200 nM after 24 hrs by propidium iodide staining based flow cytometry; format: functional
[52] = test system: HeLa; experiment: Inhibition of colony formation in human HeLa cells assessed as reduction in colony size at 50 nM after 24 hrs by crystal violet staining based microscopic analysis; format: functional, cell-based
[53] = test system: HeLa; experiment: Induction of apoptosis in human HeLa cells assessed as cleaved caspase-3 expression at 50 to 200 nM after 24 hrs by Western blot analysis; format: functional, cell-based
[54] = test system: HeLa; experiment: Cytotoxicity activity against human HeLa cells after 48 hrs by MTT assay; format: functional, cell-based

Sequence of RAC-alpha serine/threonine-protein kinase (Homo sapiens) (P31749 whole entry): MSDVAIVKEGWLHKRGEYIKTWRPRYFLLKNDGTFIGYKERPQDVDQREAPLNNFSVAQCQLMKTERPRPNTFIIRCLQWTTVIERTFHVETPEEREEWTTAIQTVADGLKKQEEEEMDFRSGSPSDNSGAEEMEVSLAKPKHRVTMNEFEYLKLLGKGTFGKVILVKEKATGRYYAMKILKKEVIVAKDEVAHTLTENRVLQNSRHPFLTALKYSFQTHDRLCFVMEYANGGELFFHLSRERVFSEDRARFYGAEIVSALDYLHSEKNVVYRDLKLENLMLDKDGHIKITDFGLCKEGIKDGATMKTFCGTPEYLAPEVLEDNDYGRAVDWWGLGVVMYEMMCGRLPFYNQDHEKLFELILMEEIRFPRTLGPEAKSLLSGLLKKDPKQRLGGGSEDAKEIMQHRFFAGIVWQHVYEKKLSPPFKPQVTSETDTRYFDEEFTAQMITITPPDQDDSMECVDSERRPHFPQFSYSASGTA
Sequence of Mitogen-activated protein kinase; ERK1/ERK2 (Homo sapiens) (P27361 whole entry, looked up): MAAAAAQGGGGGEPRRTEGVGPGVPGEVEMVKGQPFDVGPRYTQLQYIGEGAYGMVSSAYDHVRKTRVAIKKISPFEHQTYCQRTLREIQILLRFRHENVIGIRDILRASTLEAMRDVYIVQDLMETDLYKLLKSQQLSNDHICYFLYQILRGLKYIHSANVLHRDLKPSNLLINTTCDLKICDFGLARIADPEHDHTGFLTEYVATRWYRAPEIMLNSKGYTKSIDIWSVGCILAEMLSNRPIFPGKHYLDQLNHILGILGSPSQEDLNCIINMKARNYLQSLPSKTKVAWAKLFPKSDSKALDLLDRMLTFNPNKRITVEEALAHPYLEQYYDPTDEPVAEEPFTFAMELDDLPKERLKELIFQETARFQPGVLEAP
Sequence of Mitogen-activated protein kinase; ERK1/ERK2 (Homo sapiens) (P28482 whole entry, looked up): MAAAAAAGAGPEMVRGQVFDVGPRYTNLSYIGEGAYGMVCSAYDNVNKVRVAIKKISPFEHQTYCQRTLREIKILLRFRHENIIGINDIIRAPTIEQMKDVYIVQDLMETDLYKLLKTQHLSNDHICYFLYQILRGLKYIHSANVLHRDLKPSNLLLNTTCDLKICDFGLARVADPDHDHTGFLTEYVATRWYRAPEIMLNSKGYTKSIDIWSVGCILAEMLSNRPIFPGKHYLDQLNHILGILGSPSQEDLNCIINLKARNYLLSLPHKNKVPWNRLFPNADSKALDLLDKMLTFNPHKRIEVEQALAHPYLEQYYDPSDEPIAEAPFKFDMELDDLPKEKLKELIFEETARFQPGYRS

Structure (SMILES): C[C@]12CC[C@H](O[C@@H]3C[C@H](CO)[C@@H](O)[C@H](O)[C@H]3O)C[C@@H]1CC[C@@H]1[C@@H]2CC[C@]2(C)[C@@H](c3ccc(=O)oc3)[C@@H](O)C[C@]12O
- Activity [1]: Active
- Activity [2]: Active
- Activity [3]: 36%
- inhibition [4]: Active
- Activity [5]: Non-Toxic
- Activity [6]: Active
- Activity [7]: Active
- Activity [8]: inactive
- IC50 [9]: 1410 nM
- Activity [10]: 8.67%
- Activity [11]: Active
- Activity [12]: Active
- Activity [13]: Active
- Activity [14]: Active
- Activity [15]: Active
- Activity [16]: Active
- Activity [17]: 16.6%
- Activity [18]: Active
- inhibition [19]: Dose-dependent effect
- Activity [20]: Active
- viability at 0.1 µM [21]: 82.5%
- IC50 [22]: 221 nM
- Activity [23]: Active
- inhibition [24]: Active
- inhibition [25]: Active
- Activity [26]: Active
- IC50 [27]: 546 nM
- Activity [28]: Active
- IC50 [29]: 239 nM
- Activity [30]: 0.1%
- inhibition [31]: Dose-dependent effect
- Activity [32]: 0.56%
- inhibition [33]: Dose-dependent effect
- Activity [34]: Active
- Activity [35]: 38.3%
- inhibition [36]: Dose-dependent effect
- Activity [37]: Active
- viability at 0.2 µM [38]: 52.9%
- IC50 [39]: 1020 nM
- viability at 0.5 µM [40]: 46.9%
- Activity [41]: 7.28%
- inhibition [42]: Active
- Activity [43]: 0.062%
- Activity [44]: 73%
- Activity [45]: Active
- Activity [46]: Active
- Activity [47]: 10.2%
- Activity [48]: Active
- Activity [49]: Active
- Activity [50]: Active
- Activity [51]: Active
- inhibition [52]: Active
- Activity [53]: Active
- IC50 [54]: 158 nM

Structure (SMILES): C[C@]12CC[C@H](O)C[C@H]1CC[C@@H]1[C@@H]2CC[C@]2(C)[C@@H](c3ccc(=O)oc3)CC[C@]12O [BUFALIN]
- Activity [10]: 13.9%
- IC50 [27]: 594 nM
- Activity [30]: 1.86%
- Activity [35]: 30.9%
- viability at 0.2 µM [38]: 53.3%
- IC50 [54]: 280 nM
